The record followed here is US20170240543A1, “CRYSTALLINE FORMS OF PALBOCICLIB” (Sun Pharmaceutical Industries Limited, priority 2014, published 2017).

Series [1] can be described thus: Filterability, electrostatic nature and flowability of the solid. The conditions noted are these: no comparator stated. Type of series: physicochemical.
Series [2] is described as follows: Specific surface area (Micromeritic Gemini VII 2390 Surface Analyzer). Type of series: physicochemical. The method, then: Specific surface area was determined using a Micromeritic® Gemini® VII 2390 Surface Analyzer (Software: Gemini VII, version 1.03).

Consider `CC(=O)c1c(C)c2cnc(Nc3ccc(N4CCNCC4)cn3)nc2n(C2CCCC2)c1=O` [Form V-A, 6-acetyl-8-cyclopentyl-5-methyl-2-[[5-(1-piperazinyl)-2-pyridinyl]amino]pyrido[2,3-d]pyrimidin-7(8H)-one], for which the “filterability, electrostatic nature, and flowability” value in series [1] is reported as “improved”. Besides, the “specific surface area (SSA)” value in series [2] is recorded as “greater than 2 m^2/g”.
